Reference: patent US7915267B2, “Heterocyclic amide compound and use thereof” (Takeda Pharmaceutical Company Limited, priority 2005, dated 2011)

The compounds below were run against T1, MMP-13 (Homo sapiens, UniProt P45452) (assay: MMP-13 inhibitory activity (fluorogenic substrate Cy3-PLGLK(Cy5Q)AR-NH2 enzyme assay)). Settings: compound 1 μM; 37° C., 40 min; APMA-activated MMP-13 precursor; read-out: MMP-13 inhibitory rate (%) at 1 μM.
T1 construct: purchased GenzymeTechne
Assay type: biochemical
Procedure: To 10 μg of MMP-13 precursor (GenzymeTechne) was added 1 ml of assay buffer (50 mM Tris-HCl (pH 7.5), 10 mM CaCl2, 150 mM NaCl, 0.05% Brij-35), and 4-aminophenylmercuric acid (Sigma) was added to the final concentration of 1 mM. The MMP-13 precursor was activated by incubating at 37° C. for 2 hr.
In a 96 well black plate (Corning), to 6.3 ng/ml of MMP-13 solution (49 μl) diluted with assay buffer was added the test compound (1 μl) diluted with dimethyl sulfoxide (DMSO) and 620 nM Cy3-PLGLK(Cy5Q)AR-NH2 (50 μl, synthesized by Amersham Biosciences) in assay buffer was added to start the enzyme reaction. After incubation at 37° C. for 40 min, 500 mM EDTA solution (6 μl) was added to stop the reaction. For measurement, Farcyte (Amersham Biosciences) was used to measure at excitation wavelength 535 nm and measurement wavelength 595 nm.
T: value of well with addition of DMSO instead of test compound
C: value of well with addition of DMSO instead of test compound and addition of EDTA solution before addition of substrate solution
X: value of well with addition of test compound
`N#Cc1ccc2nc(C(=O)NCc3cccc(OCCSc4nc[nH]n4)c3)[nH]c(=O)c2c1` [Example 2, 6-cyano-4-oxo-N-[(3-{[2-(1H-1,2,4-triazol-3-ylthio)ethyl]oxy}phenyl)methyl]-3,4-dihydroquinazoline-2-carboxamide] was tested, and the inhibition at 1 µM was 97%.
In the case of `O=C(NCc1cccc(OCCSc2nc[nH]n2)c1)c1nc2ccc(F)cc2c(=O)[nH]1` [Example 3, 6-fluoro-4-oxo-N-[(3-{[2-(1H-1,2,4-triazol-3-ylthio)ethyl]oxy}phenyl)methyl]-3,4-dihydroquinazoline-2-carboxamide], the inhibition at 1 µM is reported as 98%.
Compound `COc1ccc2nc(C(=O)NCc3cccc(OCCSc4nc[nH]n4)c3)[nH]c(=O)c2c1` [Example 4, 6-(methyloxy)-4-oxo-N-[(3-{[2-(1H-1,2,4-triazol-3-ylthio)ethyl]oxy}phenyl)methyl]-3,4-dihydroquinazoline-2-carboxamide] has an inhibition at 1 µM of 99%.
In the case of `O=C(NCc1cccc(OCCSc2nc[nH]n2)c1)c1nc2ccc(Cl)cc2c(=O)[nH]1` [Example 5, 6-chloro-4-oxo-N-[(3-{[2-(1H-1,2,4-triazol-3-ylthio)ethyl]oxy}phenyl)methyl]-3,4-dihydroquinazoline-2-carboxamide], the inhibition at 1 µM is reported as 97%.
`Cc1ccc2nc(C(=O)NCc3cccc(OCCSc4nc[nH]n4)c3)[nH]c(=O)c2c1` [Example 6, 6-methyl-4-oxo-N-[(3-{[2-(1H-1,2,4-triazol-3-ylthio)ethyl]oxy}phenyl)methyl]-3,4-dihydroquinazoline-2-carboxamide] was tested, and the inhibition at 1 µM was 97%.
Compound `Nc1ccc2nc(C(=O)NCc3cccc(OCCSc4nc[nH]n4)c3)[nH]c(=O)c2c1` [Example 7, 6-amino-4-oxo-N-[(3-{[2-(1H-1,2,4-triazol-3-ylthio)ethyl]oxy}phenyl)methyl]-3,4-dihydroquinazoline-2-carboxamide] has an inhibition at 1 µM of 97%.
For `O=C(NCc1cccc(OCCSc2nc[nH]n2)c1)c1nc2ccc(F)c(F)c2c(=O)[nH]1` [Example 8, 5,6-difluoro-4-oxo-N-[(3-{[2-(1H-1,2,4-triazol-3-ylthio)ethyl]oxy}phenyl)methyl]-3,4-dihydroquinazoline-2-carboxamide], the inhibition at 1 µM was 99%.
Compound `Cc1cccc2nc(C(=O)NCc3cccc(OCCSc4nc[nH]n4)c3)[nH]c(=O)c12` [Example 9, 5-methyl-4-oxo-N-[(3-{[2-(1H-1,2,4-triazol-3-ylthio)ethyl]oxy}phenyl)methyl]-3,4-dihydroquinazoline-2-carboxamide] has an inhibition at 1 µM of 98%.
Compound `O=C(NCc1cccc(OCCSc2nc[nH]n2)c1)c1nc2cccc(F)c2c(=O)[nH]1` [Example 10, 5-fluoro-4-oxo-N-[(3-{[2-(1H-1,2,4-triazol-3-ylthio)ethyl]oxy}phenyl)methyl]-3,4-dihydroquinazoline-2-carboxamide] has an inhibition at 1 µM of 98%.
In the case of `O=C(NCc1cccc(OCCSc2nc[nH]n2)c1)c1nc2sccc2c(=O)[nH]1` [Example 11, 4-oxo-N-[(3-{[2-(1H-1,2,4-triazol-3-ylthio)ethyl]oxy}phenyl)methyl]-3,4-dihydrothieno[2,3-d]pyrimidine-2-carboxamide], the inhibition at 1 µM is reported as 97%.
With `Cc1cc2c(=O)[nH]c(C(=O)NCc3cccc(OCCSc4nc[nH]n4)c3)nc2s1` [Example 13, 6-methyl-4-oxo-N-[(3-{[2-(1H-1,2,4-triazol-3-ylthio)ethyl]oxy}phenyl)methyl]-3,4-dihydrothieno[2,3-d]pyrimidine-2-carboxamide] the inhibition at 1 µM was 97%.
Compound `Cc1sc2nc(C(=O)NCc3cccc(OCCSc4nc[nH]n4)c3)[nH]c(=O)c2c1C` [Example 14, 5,6-dimethyl-4-oxo-N-[(3-{[2-(1H-1,2,4-triazol-3-ylthio)ethyl]oxy}phenyl)methyl]-3,4-dihydrothieno[2,3-d]pyrimidine-2-carboxamide] has an inhibition at 1 µM of 98%.
Compound `N#Cc1ccc2nc(C(=O)NCc3cccc(OCCCSc4nc[nH]n4)c3)[nH]c(=O)c2c1` [Example 15, 6-cyano-4-oxo-N-[(3-{[3-(1H-1,2,4-triazol-3-ylthio)propyl]oxy}phenyl)methyl]-3,4-dihydroquinazoline-2-carboxamide] has an inhibition at 1 µM of 98%.
`N#Cc1ccc2nc(C(=O)NCc3cccc(OCCCCSc4nc[nH]n4)c3)[nH]c(=O)c2c1` [Example 17, 6-cyano-4-oxo-N-[(3-{[4-(1H-1,2,4-triazol-3-ylthio)butyl]oxy}phenyl)methyl]-3,4-dihydroquinazoline-2-carboxamide] was tested, and the inhibition at 1 µM was 97%.
With `O=C(NCc1ccnc(OCCSc2nc[nH]n2)c1)c1nc2ccccc2c(=O)[nH]1` [Example 19, 4-oxo-N-[(2-{[2-(1H-1,2,4-triazol-3-ylthio)ethyl]oxy}pyridin-4-yl)methyl]-3,4-dihydroquinazoline-2-carboxamide] the inhibition at 1 µM was 93%.
Compound `N#Cc1ccc2nc(C(=O)NCc3ccnc(OCCSc4nc[nH]n4)c3)[nH]c(=O)c2c1` [Example 20, 6-cyano-4-oxo-N-[(2-{[2-(1H-1,2,4-triazol-3-ylthio)ethyl]oxy}pyridin-4-yl)methyl]-3,4-dihydroquinazoline-2-carboxamide] has an inhibition at 1 µM of 89%.
`Cc1csc2nc(C(=O)NCc3ccnc(OCCSc4nc[nH]n4)c3)[nH]c(=O)c12` [Example 21, 5-methyl-4-oxo-N-[(2-{[2-(1H-1,2,4-triazol-3-ylthio)ethyl]oxy}pyridin-4-yl)methyl]-3,4-dihydrothieno[2,3-d]pyrimidine-2-carboxamide] was tested, and the inhibition at 1 µM was 100%.
Work on `O=C(NCc1ccnc(OCCCc2nc[nH]n2)c1)c1nc2ccccc2c(=O)[nH]1` [Example 22, 4-oxo-N-[(2-{[3-(1H-1,2,4-triazol-3-yl)propyl]oxy}pyridin-4-yl)methyl]-3,4-dihydroquinazoline-2-carboxamide] yielded an inhibition at 1 µM of 95%.
For `N#Cc1ccc2nc(C(=O)NCc3ccnc(OCCCc4nc[nH]n4)c3)[nH]c(=O)c2c1` [Example 23, 6-cyano-4-oxo-N-[(2-{[3-(1H-1,2,4-triazol-3-yl)propyl]oxy}pyridin-4-yl)methyl]-3,4-dihydroquinazoline-2-carboxamide], the inhibition at 1 µM was 96%.
Work on `Cc1csc2nc(C(=O)NCc3ccnc(OCCCc4nc[nH]n4)c3)[nH]c(=O)c12` [Example 24, 5-methyl-4-oxo-N-[(2-{[3-(1H-1,2,4-triazol-3-yl)propyl]oxy}pyridin-4-yl)methyl]-3,4-dihydrothieno[2,3-d]pyrimidine-2-carboxamide] yielded an inhibition at 1 µM of 93%.
Compound `N#Cc1ccc2nc(C(=O)NCc3cccc(OCCOc4nc[nH]n4)c3)[nH]c(=O)c2c1` [Example 25, 6-cyano-4-oxo-N-[(3-{[2-(1H-1,2,4-triazol-3-yloxy)ethyl]oxy}phenyl)methyl]-3,4-dihydroquinazoline-2-carboxamide] has an inhibition at 1 µM of 97%.
`O=C(NCc1cccc(OCCOc2nc[nH]n2)c1)c1nc2scc(-c3ccco3)c2c(=O)[nH]1` [Example 28, 5-furan-2-yl-4-oxo-N-[(3-{[2-(1H-1,2,4-triazol-3-yloxy)ethyl]oxy}phenyl)methyl]-3,4-dihydrothieno[2,3-d]pyrimidine-2-carboxamide] showed an inhibition at 1 µM of 96%.
Compound `N#CCc1csc2nc(C(=O)NCc3cccc(OCCOc4nc[nH]n4)c3)[nH]c(=O)c12` [Example 29, 5-(cyanomethyl)-4-oxo-N-[(3-{[2-(1H-1,2,4-triazol-3-yloxy)ethyl]oxy}phenyl)methyl]-3,4-dihydrothieno[2,3-d]pyrimidine-2-carboxamide] has an inhibition at 1 µM of 98%.
